How the values were obtained:
Conditions in all cases: male, Sprague-Dawley, rat, in vivo
[1] = system: P450 LA-omega
Experimental: (§1) Animals were monitored daily for physical condition and body weight, and blood samples were assayed for serum alanine transferase (ALT) and aspartate aminotransferase (AST) levels using a diagnostic kit (Sigma Aldrich). Three animals per group were sacrificed approximately 12 hours (h), 24 h, 72 h, 168 h, 336 h and 672 h following the last dose administered. Observed gross pathology and liver weights were recorded at time of necropsy. Liver, kidney, brain, spleen and pancreas from each rat were harvested, flash frozen in liquid nitrogen, and stored at −80° C.
(§2) Frozen liver was homogenized and lysed in TRIZOL reagent (Cat. #10296-028; Life Technologies) following the modifications for liver RNA isolation. Poly(A+) RNA was isolated using an OLIGOTEX kit (Qiagen, Carlsbad, Calif.) and labeled with either Cy3 or Cy5-labeled primers (Operon Technologies, Alameda, Calif.) using the GEMBRIGHT labeling kit (Incyte Genomics). MRNA isolated from tissues of rats dosed with PB was labeled with Cy5 and mRNA isolated from tissues of rats dosed with DMSO was labeled with Cy3. Quantitative and differential expression pattern control cDNAs were added to each labeling reaction. Labeled cDNA was treated with 0.5 M sodium bicarbonate (pH9.2) for 20 min at 85° C. to degrade the RNA and purified using two successive CHROMA SPIN 30 gel filtration spin columns (Clontech, Palo Alto, Calif.). Cy3 labeled control sample and Cy5 labeled experimental sample were combined and precipitated in glycogen, sodium acetate, and ethanol.
(§3) Hybridization reactions contained 9 microliters of probe mixture consisting of 0.2 micrograms each of both Cy3 and Cy5 labeled cDNA synthesis products in 5×SSC, 0.2% SDS hybridization buffer. The probe mixture was heated to 65° C. for 5 min and was aliquoted onto the microarray surface and covered with an 1.8 cm^2 coverslip. The arrays were transferred to a waterproof chamber having a cavity just slightly larger than a microscope slide. The chamber was kept at 100% humidity internally by the addition of 140 microliters of 5×SSC in a corner of the chamber. The chamber containing the arrays was incubated for about 6.5 hours at 60° C. The arrays were washed for 10 min at 45° C. in low stringency wash buffer (1×SSC, 0.1% SDS), three times for 10 min each at 45 ° C. in high stringency wash buffer (0.1×SSC), and then dried.
(§4) The microscope used to detect the reporter-labeled hybridization complexes was outfitted with an Innova 70 mixed gas 10 W laser (Coherent Lasers, Santa Clara, Calif.) capable of generating spectral lines at 488 nm for excitation of Cy3, and 632 nm for excitation of Cy5. The excitation laser light was focused on the array using a 20X microscope objective (Nikon). […]

[2] = system: SEQ ID NOs: 1-47
Experimental: as §1, §2, §3, §4

[3] = system: P450 ISF/B-NF
Experimental: as §1, §2, §3, §4

[4] = system: P450 MCA-inducible
Experimental: as §1, §2, §3, §4

## c1ccc2c(c1)cc1ccc3cccc4ccc2c1c34 [benzo(a)pyrene]
[1]
  P450 LA-omega upregulated at least once during the time course: greater than 3 fold
[2]
  SEQ ID NOs: 1-47 up-regulated or downregulated at least once during the time course: at least 3 fold
[3]
  P450 ISF/B-NF upregulated at least once during the time course: greater than 3 fold
[4]
  P450 MCA-inducible upregulated at least once during the time course: greater than 3 fold
